Measurements as given in US10081624B2, “Heterocyclic compound” (Takeda Pharmaceutical Company Limited, priority 2014, dated 2018).

Legend:
[1] = biological target: T1, HDAC1 enzyme (Homo sapiens, UniProt Q13547); assay: HDAC1 enzyme inhibitory assay (HDAC-Glo I/II Assay kit); type: biochemical; conditions: 1 μM test compound; read-out: HDAC1 inhibitory rate (%) (1 μM)
T1 construct: prepared by transducing full length HDAC1 and HDAC6 genes into Sf-9 insect cells; GST; purchased SignalChem; host or cells: Sf-9 insect cells
T1 sequence (Q13547 whole entry): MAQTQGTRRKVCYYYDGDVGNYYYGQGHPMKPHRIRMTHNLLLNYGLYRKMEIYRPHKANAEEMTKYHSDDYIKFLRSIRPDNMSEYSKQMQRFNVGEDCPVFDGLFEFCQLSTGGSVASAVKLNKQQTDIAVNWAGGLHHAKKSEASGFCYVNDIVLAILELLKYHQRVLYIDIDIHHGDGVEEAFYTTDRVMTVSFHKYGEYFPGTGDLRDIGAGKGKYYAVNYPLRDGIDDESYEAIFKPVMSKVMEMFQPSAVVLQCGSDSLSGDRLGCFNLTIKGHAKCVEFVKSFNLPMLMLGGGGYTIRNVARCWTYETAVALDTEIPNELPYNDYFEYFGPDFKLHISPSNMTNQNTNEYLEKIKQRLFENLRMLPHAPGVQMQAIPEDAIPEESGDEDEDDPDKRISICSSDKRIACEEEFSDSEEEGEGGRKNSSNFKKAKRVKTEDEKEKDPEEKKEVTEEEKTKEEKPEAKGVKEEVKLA
Summary of the method: (§1)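 Full-length GST-purified HDAC1 or HDAC6 (Sf-9 expressed) preincubated 60 min at room temperature with compound in Tris-HCl pH 7.5 buffer with glutathione and Tween-20. HDAC-Glo substrate-developer added, 20 min at room temperature, then luminescence read; inhibition relative to no-enzyme wells as 100%.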

[2] = biological target: T2, HDAC6 enzyme (Homo sapiens, UniProt Q9UBN7); assay: HDAC6 enzyme inhibitory assay (HDAC-Glo I/II Assay kit); type: biochemical; conditions: 1 μM test compound; read-out: HDAC6 inhibitory rate (%) (1 μM)
T2 construct: prepared by transducing full length HDAC1 and HDAC6 genes into Sf-9 insect cells; GST; purchased SignalChem; host or cells: Sf-9 insect cells
T2 sequence (Q9UBN7 1-1215): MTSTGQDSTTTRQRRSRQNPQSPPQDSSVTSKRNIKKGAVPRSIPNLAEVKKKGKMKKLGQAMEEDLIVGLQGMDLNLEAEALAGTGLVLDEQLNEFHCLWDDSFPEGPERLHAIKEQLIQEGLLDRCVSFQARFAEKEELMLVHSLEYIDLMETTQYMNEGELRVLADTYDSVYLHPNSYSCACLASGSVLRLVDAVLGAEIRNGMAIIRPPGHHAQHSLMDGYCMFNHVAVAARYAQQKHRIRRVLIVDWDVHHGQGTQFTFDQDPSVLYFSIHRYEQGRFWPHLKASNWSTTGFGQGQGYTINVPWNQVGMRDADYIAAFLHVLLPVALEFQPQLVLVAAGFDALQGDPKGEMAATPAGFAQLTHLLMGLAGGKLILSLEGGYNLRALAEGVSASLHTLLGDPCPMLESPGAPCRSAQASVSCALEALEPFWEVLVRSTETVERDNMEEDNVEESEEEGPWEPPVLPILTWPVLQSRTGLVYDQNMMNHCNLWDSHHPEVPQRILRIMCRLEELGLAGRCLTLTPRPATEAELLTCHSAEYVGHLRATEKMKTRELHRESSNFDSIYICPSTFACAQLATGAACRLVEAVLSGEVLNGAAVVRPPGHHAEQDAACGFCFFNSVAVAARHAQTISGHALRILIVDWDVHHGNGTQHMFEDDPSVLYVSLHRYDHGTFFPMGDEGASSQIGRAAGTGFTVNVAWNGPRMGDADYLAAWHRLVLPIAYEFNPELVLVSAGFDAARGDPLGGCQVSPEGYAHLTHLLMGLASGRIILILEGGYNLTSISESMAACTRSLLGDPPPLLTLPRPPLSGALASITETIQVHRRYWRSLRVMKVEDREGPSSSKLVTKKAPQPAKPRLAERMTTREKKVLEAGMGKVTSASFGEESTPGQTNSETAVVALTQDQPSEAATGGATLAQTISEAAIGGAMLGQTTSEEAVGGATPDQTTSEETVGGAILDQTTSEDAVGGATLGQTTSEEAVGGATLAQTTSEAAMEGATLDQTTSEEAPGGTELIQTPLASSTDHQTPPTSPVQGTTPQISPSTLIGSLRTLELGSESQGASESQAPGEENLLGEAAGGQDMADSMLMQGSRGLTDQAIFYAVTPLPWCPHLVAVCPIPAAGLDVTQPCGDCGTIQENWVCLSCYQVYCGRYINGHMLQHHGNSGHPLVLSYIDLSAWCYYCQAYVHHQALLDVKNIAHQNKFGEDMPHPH
Summary of the method: as §1

SMILES	inhibition at 1 µM [1] [%]	inhibition at 1 µM [2] [%]
Cc1nnsc1C(=O)N1CCOC[C@@H]1CNC(=O)c1ccc(-c2noc(C(F)(F)F)n2)cn1 [Example 195, N-(((3S)-4-((4-methyl-1,2,3-thiadiazol-5-yl)carbonyl)morpholin-3-yl)methyl)-5-(5-(trifluoromethyl)-1,2,4-oxadiazol-3-yl)pyridine-2-carboxamide]	40	98
O=C(NC[C@H]1COCCN1C(=O)C1(c2ccccc2)CC1)c1ccc(-c2noc(C(F)(F)F)n2)cn1 [Example 202, N-(((3S)-4-((1-phenylcyclopropyl)carbonyl)morpholin-3-yl)methyl)-5-(5-(trifluoromethyl)-1,2,4-oxadiazol-3-yl)pyridine-2-carboxamide]	20	98
O=C(NC[C@H]1COCCN1C(=O)C1CCCCC1)c1ccc(-c2noc(C(F)(F)F)n2)cn1 [Example 204, N-(((3S)-4-(cyclohexylcarbonyl)morpholin-3-yl)methyl)-5-(5-(trifluoromethyl)-1,2,4-oxadiazol-3-yl)pyridine-2-carboxamide]	22	97
O=C(NC[C@H]1COCCN1C(=O)C1C2CC3CC(C2)CC1C3)c1ccc(-c2noc(C(F)(F)F)n2)cn1 (stereo partly shown) [Example 205, N-((4-(adamantan-2-ylcarbonyl)morpholin-3-yl)methy)-5-(5-(trifluoromethyl)-1,2,4-oxadiazol-3-yl)pyridine-2-carboxamide]	59	99
CC(C)(C(=O)N1CCOC[C@@H]1CNC(=O)c1ccc(-c2noc(C(F)(F)F)n2)cn1)c1ccccc1 [Example 206, N-(((3S)-4-(2-methyl-2-phenylpropanoyl)morpholin-3-yl)methyl)-5-(5-(trifluoromethyl)-1,2,4-oxadiazol-3-yl)pyridine-2-carboxamide]	33	98
O=C(NC[C@H]1COCCN1C(=O)C(F)(F)c1ccccc1)c1ccc(-c2noc(C(F)(F)F)n2)cn1 [Example 207, N-(((3S)-4-(difluoro(phenyl)acetyl)morpholin-3-yl)methyl)-5-(5-(trifluoromethyl)-1,2,4-oxadiazol-3-yl)pyridine-2-carboxamide]	41	99
O=C(NC[C@@H]1COCCN1C(=O)C1(c2ccccc2)CC1)c1ccc(-c2noc(C(F)(F)F)n2)cn1 [Example 208, N-(((3R)-4-((1-phenylcyclopropyl)carbonyl)morpholin-3-yl)methyl)-5-(5-(trifluoromethyl)-1,2,4-oxadiazol-3-yl)pyridine-2-carboxamide]	16	92
O=C(NC[C@@H]1COCCN1C(=O)c1cc(Cl)cc(Cl)c1)c1ccc(-c2noc(C(F)(F)F)n2)cn1 [Example 209, N-(((3R)-4-(3,5-dichlorobenzoyl)morpholin-3-yl)methyl)-5-(5-(trifluoromethyl)-1,2,4-oxadiazol-3-yl)pyridine-2-carboxamide]	21	95
O=C(NCC1COCCN1C(=O)c1ccccc1)c1ccc(-c2noc(C(F)(F)F)n2)s1 (stereo not shown) [Example 210, N-((4-benzoylmorpholin-3-yl)methyl)-5-(5-(trifluoromethyl)-1,2,4-oxadiazol-3-yl)thiophene-2-carboxamide]	23	96
O=C(NCC1COCCN1C(=O)c1cc(Cl)cc(Cl)c1)c1ccc(-c2noc(C(F)(F)F)n2)s1 (stereo not shown) [Example 211, N-((4-(3,5-dichlorobenzoyl)morpholin-3-yl)methyl)-5-(5-(trifluoromethyl)-1,2,4-oxadiazol-3-yl)thiophene-2-carboxamide]	15	96
O=C(NCC1COCCN1C(=O)c1cccc(-c2ccccc2)c1)c1ccc(-c2noc(C(F)(F)F)n2)s1 (stereo not shown) [Example 222, N-((4-(biphenyl-3-ylcarbonyl)morpholin-3-yl)methyl)-5-(5-(trifluoromethyl)-1,2,4-oxadiazol-3-yl)thiophene-2-carboxamide]	7	89

Now from value to molecule:

inhibition at 1 µM [1] [%]	inhibition at 1 µM [2] [%]	SMILES
17	99	Cc1oncc1C(=O)N1CCOCC1CNC(=O)c1ccc(-c2noc(C(F)(F)F)n2)s1 (stereo not shown) [Example 235, N-((4-((5-methyl-1,2-oxazol-4-yl)carbonyl)morpholin-3-yl)methyl)-5-(5-(trifluoromethyl)-1,2,4-oxadiazol-3-yl)thiophene-2-carboxamide]
43	98	Cc1nonc1C(=O)N1CCOCC1CNC(=O)c1ccc(-c2noc(C(F)(F)F)n2)s1 (stereo not shown) [Example 236, N-((4-((4-methyl-1,2,5-oxadiazol-3-yl)carbonyl)morpholin-3-yl)methyl)-5-(5-(trifluoromethyl)-1,2,4-oxadiazol-3-yl)thiophene-2-carboxamide]
27	98	Cc1nnsc1C(=O)N1CCOCC1CNC(=O)c1ccc(-c2noc(C(F)(F)F)n2)s1 (stereo not shown) [Example 237, N-((4-((4-methyl-1,2,3-thiadiazol-5-yl)carbonyl)morpholin-3-yl)methyl)-5-(5-(trifluoromethyl)-1,2,4-oxadiazol-3-yl)thiophene-2-carboxamide]
52	99	O=C(NCC1COCCN1C(=O)C(F)(F)c1ccccc1)c1ccc(-c2noc(C(F)(F)F)n2)s1 (stereo not shown) [Example 246, N-((4-(difluoro(phenyl)acetyl)morpholin-3-yl)methyl)-5-(5-(trifluoromethyl)-1,2,4-oxadiazol-3-yl)thiophene-2-carboxamide]
18	98	CC(C)(C(=O)N1CCOCC1CNC(=O)c1ccc(-c2noc(C(F)(F)F)n2)s1)c1ccccc1 (stereo not shown) [Example 247, N-((4-(2-methyl-2-phenylpropanoyl)morpholin-3-yl)methyl)-5-(5-(trifluoromethyl)-1,2,4-oxadiazol-3-yl)thiophene-2-carboxamide]
18	97	O=C(NCC1COCCN1C(=O)C1(c2ccccc2)CC1)c1ccc(-c2noc(C(F)(F)F)n2)s1 (stereo not shown) [Example 248, N-((4-((1-phenylcyclopropyl)carbonyl)morpholin-3-yl)methyl)-5-(5-(trifluoromethyl)-1,2,4-oxadiazol-3-yl)thiophene-2-carboxamide]
36	96	Cn1nc2ccccc2c1C(=O)N1CCOCC1CNC(=O)c1ccc(-c2noc(C(F)(F)F)n2)s1 (stereo not shown) [Example 251, N-((4-((2-methyl-2H-indazol-3-yl)carbonyl)morpholin-3-yl)methyl)-5-(5-(trifluoromethyl)-1,2,4-oxadiazol-3-yl)thiophene-2-carboxamide]
33	98	O=C(NCC1COCCN1C(=O)C1CCCCC1)c1ccc(-c2noc(C(F)(F)F)n2)s1 (stereo not shown) [Example 254, N-((4-(cyclohexylcarbonyl)morpholin-3-yl)methyl)-5-(5-(trifluoromethyl)-1,2,4-oxadiazol-3-yl)thiophene-2-carboxamide]
34	99	O=C(NCC1COCCN1C(=O)C1C2CC3CC(C2)CC1C3)c1ccc(-c2noc(C(F)(F)F)n2)s1 (stereo not shown) [Example 256, N-((4-(adamantan-2-ylcarbonyl)morpholin-3-yl)methyl)-5-(5-(trifluoromethyl)-1,2,4-oxadiazol-3-yl)thiophene-2-carboxamide]
